Data: PubChem BioAssay (NCI)
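Five concentrations, 48 hours, 96-well plates. GI50 = concentration required for 50% inhibition of growth. TGI denotes the concentration required for complete inhibition of growth.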

Key:
Assay in all cases: NCI anticancer screen, dose series, 48 h
DU-145 prostate = tested on: DU-145 prostate
NCI-H460 lung = tested on: NCI-H460 lung
EKVX NSCLC = tested on: EKVX NSCLC
SNB-19 CNS = tested on: SNB-19 CNS
NCI/ADR-RES ovarian = tested on: NCI/ADR-RES ovarian
KM12 colon = tested on: KM12 colon
HCT-15 colon = tested on: HCT-15 colon
TK-10 renal = tested on: TK-10 renal
HOP-62 NSCLC = tested on: HOP-62 NSCLC
BT-549 breast = tested on: BT-549 breast
COLO 205 colon = tested on: COLO 205 colon
OVCAR-4 ovarian = tested on: OVCAR-4 ovarian
A498 renal = tested on: A498 renal
U251 CNS = tested on: U251 CNS
HS 578T breast = tested on: HS 578T breast
UO-31 renal = tested on: UO-31 renal
SF-539 CNS = tested on: SF-539 CNS
HL-60(TB) leukemia = tested on: HL-60(TB) leukemia
HT29 colon = tested on: HT29 colon
HCC-2998 colon = tested on: HCC-2998 colon
ACHN renal = tested on: ACHN renal
NCI-H522 lung = tested on: NCI-H522 lung
OVCAR-3 ovarian = tested on: OVCAR-3 ovarian
IGROV1 ovarian = tested on: IGROV1 ovarian
LOX IMVI melanoma = tested on: LOX IMVI melanoma
A549 NSCLC = tested on: A549 NSCLC
MDA-MB-468 breast = tested on: MDA-MB-468 breast
OVCAR-5 ovarian = tested on: OVCAR-5 ovarian
HOP-92 NSCLC = tested on: HOP-92 NSCLC
MOLT-4 leukemia = tested on: MOLT-4 leukemia

With `O=C(NNc1nc2cc(C(F)(F)F)ccc2n2cccc12)c1cnccn1` the TGI (DU-145 prostate) was 2.44 µM, the GI50 (NCI-H460 lung) was 0.116 µM and the TGI (NCI-H460 lung) was 5.58 µM. It also gave a GI50 (EKVX NSCLC) of 0.176 µM, a TGI (EKVX NSCLC) of 1.23 µM and a GI50 (SNB-19 CNS) of 0.437 µM. It also gave a TGI (SNB-19 CNS) of 2.54 µM, a GI50 (NCI/ADR-RES ovarian) of 0.255 µM and a TGI (NCI/ADR-RES ovarian) of 1.48 µM. For the same compound, the GI50 (KM12 colon) was 0.341 µM, the TGI (KM12 colon) was 2.06 µM and the GI50 (HCT-15 colon) was 0.0891 µM. The TGI (HCT-15 colon) was 1.55 µM, the GI50 (TK-10 renal) was 0.452 µM and the TGI (TK-10 renal) was 1.77 µM. The GI50 (HOP-62 NSCLC) was 0.214 µM, the TGI (HOP-62 NSCLC) was 1.92 µM and the GI50 (BT-549 breast) was 1.06 µM. It also gave a TGI (BT-549 breast) of 3.41 µM, a GI50 (COLO 205 colon) of 0.364 µM and a TGI (COLO 205 colon) of 1.48 µM. For the same compound, the GI50 (OVCAR-4 ovarian) was 0.266 µM, the TGI (OVCAR-4 ovarian) was 2.27 µM and the GI50 (A498 renal) was 1.62 µM. It also gave a TGI (A498 renal) of 3.34 µM, a GI50 (U251 CNS) of 0.199 µM and a TGI (U251 CNS) of 2.21 µM. The GI50 (HS 578T breast) was 1.5 µM, the TGI (HS 578T breast) was 10.7 µM and the GI50 (UO-31 renal) was 0.0832 µM. It also gave a TGI (UO-31 renal) of 1.57 µM, a GI50 (SF-539 CNS) of 0.406 µM and a TGI (SF-539 CNS) of 1.98 µM. It also gave a GI50 (HL-60(TB) leukemia) of 0.166 µM, a TGI (HL-60(TB) leukemia) of 1.69 µM and a GI50 (HT29 colon) of 0.553 µM. For the same compound, the TGI (HT29 colon) was 2.31 µM, the GI50 (HCC-2998 colon) was 0.463 µM and the TGI (HCC-2998 colon) was 2.03 µM. It also gave a GI50 (ACHN renal) of 0.217 µM, a TGI (ACHN renal) of 1.45 µM and a GI50 (NCI-H522 lung) of 0.248 µM. The TGI (NCI-H522 lung) was 0.944 µM, the GI50 (OVCAR-3 ovarian) was 0.287 µM and the TGI (OVCAR-3 ovarian) was 1.58 µM. The GI50 (IGROV1 ovarian) was 0.146 µM, the TGI (IGROV1 ovarian) was 1.6 µM and the GI50 (LOX IMVI melanoma) was 0.128 µM. The TGI (LOX IMVI melanoma) was 1.3 µM, the GI50 (A549 NSCLC) was 0.424 µM and the TGI (A549 NSCLC) was 8.91 µM. The GI50 (MDA-MB-468 breast) was 0.19 µM, the TGI (MDA-MB-468 breast) was 0.661 µM and the GI50 (OVCAR-5 ovarian) was 0.776 µM. It also gave a TGI (OVCAR-5 ovarian) of 2.49 µM, a GI50 (HOP-92 NSCLC) of 0.33 µM and a TGI (HOP-92 NSCLC) of 2.2 µM. The GI50 (MOLT-4 leukemia) was 0.235 µM and the TGI (MOLT-4 leukemia) was 5.06 µM.
